Data reported in PubChem BioAssay (NCI).
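Following 48 hours of exposure in 96-well plates, responses at five concentrations were used to interpolate endpoints linearly. GI50 is the concentration that inhibits growth by half. TGI marks complete inhibition of growth.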

Tests used:
Test in all cases: NCI tumour cell line growth inhibition, 48 h
A549 NSCLC = tested on: A549 NSCLC
U251 CNS = tested on: U251 CNS
SK-MEL-28 melanoma = tested on: SK-MEL-28 melanoma
UACC-257 melanoma = tested on: UACC-257 melanoma
HT29 colon = tested on: HT29 colon
MDA-MB-231 breast = tested on: MDA-MB-231 breast
SF-539 CNS = tested on: SF-539 CNS
HCT-15 colon = tested on: HCT-15 colon
K-562 leukemia = tested on: K-562 leukemia
MOLT-4 leukemia = tested on: MOLT-4 leukemia
HS 578T breast = tested on: HS 578T breast
LOX IMVI melanoma = tested on: LOX IMVI melanoma
SNB-19 CNS = tested on: SNB-19 CNS
SF-295 CNS = tested on: SF-295 CNS
HCC-2998 colon = tested on: HCC-2998 colon
M14 melanoma = tested on: M14 melanoma
HCT-116 colon = tested on: HCT-116 colon
CAKI-1 renal = tested on: CAKI-1 renal
SR leukemia = tested on: SR leukemia
SN12C renal = tested on: SN12C renal
UO-31 renal = tested on: UO-31 renal
NCI-H226 lung = tested on: NCI-H226 lung
TK-10 renal = tested on: TK-10 renal
HL-60(TB) leukemia = tested on: HL-60(TB) leukemia
SK-MEL-2 melanoma = tested on: SK-MEL-2 melanoma
OVCAR-5 ovarian = tested on: OVCAR-5 ovarian
SK-OV-3 ovarian = tested on: SK-OV-3 ovarian
HOP-92 NSCLC = tested on: HOP-92 NSCLC
A498 renal = tested on: A498 renal
MCF7 breast = tested on: MCF7 breast
786-0 renal = tested on: 786-0 renal
NCI-H23 lung = tested on: NCI-H23 lung
NCI-H522 lung = tested on: NCI-H522 lung
KM12 colon = tested on: KM12 colon
OVCAR-4 ovarian = tested on: OVCAR-4 ovarian
SF-268 CNS = tested on: SF-268 CNS
PC-3 prostate = tested on: PC-3 prostate
RPMI-8226 leukemia = tested on: RPMI-8226 leukemia
SW-620 colon = tested on: SW-620 colon
UACC-62 melanoma = tested on: UACC-62 melanoma
OVCAR-8 ovarian = tested on: OVCAR-8 ovarian
BT-549 breast = tested on: BT-549 breast
NCI-H460 lung = tested on: NCI-H460 lung
SK-MEL-5 melanoma = tested on: SK-MEL-5 melanoma
SNB-75 CNS = tested on: SNB-75 CNS
MALME-3M melanoma = tested on: MALME-3M melanoma
OVCAR-3 ovarian = tested on: OVCAR-3 ovarian
MDA-MB-435 = tested on: MDA-MB-435
NCI/ADR-RES ovarian = tested on: NCI/ADR-RES ovarian
T-47D breast = tested on: T-47D breast
HOP-62 NSCLC = tested on: HOP-62 NSCLC
IGROV1 ovarian = tested on: IGROV1 ovarian
DU-145 prostate = tested on: DU-145 prostate
CCRF-CEM leukemia = tested on: CCRF-CEM leukemia
EKVX NSCLC = tested on: EKVX NSCLC
COLO 205 colon = tested on: COLO 205 colon
ACHN renal = tested on: ACHN renal
RXF 393 renal = tested on: RXF 393 renal

## Cc1c(Cl)cccc1C(=O)Nc1nc2c(s1)CN(C(=O)c1ccc(C(F)(F)F)cc1)CC2
A549 NSCLC
  GI50: 124 nM
  TGI: > 50000 nM
U251 CNS
  GI50: 145 nM
  TGI: > 35600 nM
SK-MEL-28 melanoma
  GI50: 4110 nM
  TGI: > 50000 nM
UACC-257 melanoma
  GI50: 2360 nM
  TGI: 23900 nM
HT29 colon
  GI50: 75.3 nM
  TGI: 9200 nM
MDA-MB-231 breast
  GI50: 344 nM
  TGI: > 50000 nM
SF-539 CNS
  GI50: 92.3 nM
  TGI: 387 nM
HCT-15 colon
  GI50: 29.5 nM
  TGI: 21200 nM
K-562 leukemia
  GI50: 26.1 nM
  TGI: > 50000 nM
MOLT-4 leukemia
  GI50: 193 nM
  TGI: > 50000 nM
HS 578T breast
  GI50: 69.9 nM
  TGI: > 50000 nM
LOX IMVI melanoma
  GI50: 163 nM
  TGI: > 23100 nM
SNB-19 CNS
  GI50: 171 nM
  TGI: > 50000 nM
SF-295 CNS
  GI50: 22.4 nM
  TGI: > 50000 nM
HCC-2998 colon
  GI50: 200 nM
  TGI: > 50000 nM
M14 melanoma
  GI50: 48.3 nM
  TGI: 38400 nM
HCT-116 colon
  GI50: 101 nM
  TGI: > 18400 nM
CAKI-1 renal
  GI50: 71.1 nM
  TGI: > 50000 nM
SR leukemia
  GI50: 29.4 nM
  TGI: > 50000 nM
SN12C renal
  GI50: 284 nM
  TGI: > 50000 nM
UO-31 renal
  GI50: 507 nM
  TGI: > 50000 nM
NCI-H226 lung
  GI50: 157 nM
TK-10 renal
  GI50: 934 nM
  TGI: > 50000 nM
HL-60(TB) leukemia
  GI50: 108 nM
  TGI: 1250 nM
SK-MEL-2 melanoma
  GI50: 202 nM
  TGI: > 50000 nM
OVCAR-5 ovarian
  GI50: 311 nM
  TGI: > 50000 nM
SK-OV-3 ovarian
  GI50: 227 nM
  TGI: > 50000 nM
HOP-92 NSCLC
  GI50: 877 nM
  TGI: 36400 nM
A498 renal
  GI50: 64 nM
  TGI: 20900 nM
MCF7 breast
  GI50: 28.1 nM
  TGI: > 37700 nM
786-0 renal
  GI50: 184 nM
  TGI: > 33300 nM
NCI-H23 lung
  GI50: 186 nM
  TGI: > 50000 nM
NCI-H522 lung
  GI50: 25.2 nM
  TGI: 2330 nM
KM12 colon
  GI50: 113 nM
  TGI: > 50000 nM
OVCAR-4 ovarian
  GI50: 663 nM
  TGI: > 50000 nM
SF-268 CNS
  GI50: 565 nM
  TGI: > 50000 nM
PC-3 prostate
  GI50: 117 nM
  TGI: > 50000 nM
RPMI-8226 leukemia
  GI50: 198 nM
  TGI: > 34900 nM
SW-620 colon
  GI50: 65.6 nM
  TGI: > 50000 nM
UACC-62 melanoma
  GI50: 130 nM
  TGI: > 50000 nM
OVCAR-8 ovarian
  GI50: 241 nM
  TGI: > 35300 nM
BT-549 breast
  GI50: 331 nM
  TGI: 22900 nM
NCI-H460 lung
  GI50: 158 nM
  TGI: > 20400 nM
SK-MEL-5 melanoma
  GI50: 175 nM
  TGI: 6010 nM
SNB-75 CNS
  GI50: 81.4 nM
  TGI: > 50000 nM
MALME-3M melanoma
  GI50: 515 nM
  TGI: 17800 nM
OVCAR-3 ovarian
  GI50: 58.3 nM
  TGI: 347 nM
MDA-MB-435
  GI50: 15.4 nM
  TGI: 52.1 nM
NCI/ADR-RES ovarian
  GI50: 41.8 nM
  TGI: 2310 nM
T-47D breast
  GI50: 199 nM
  TGI: 28800 nM
HOP-62 NSCLC
  GI50: 173 nM
  TGI: > 50000 nM
IGROV1 ovarian
  GI50: 177 nM
  TGI: > 50000 nM
DU-145 prostate
  GI50: 194 nM
  TGI: > 50000 nM
CCRF-CEM leukemia
  GI50: 135 nM
  TGI: > 50000 nM
EKVX NSCLC
  GI50: 285 nM
  TGI: > 50000 nM
COLO 205 colon
  GI50: 164 nM
  TGI: 762 nM
ACHN renal
  GI50: 267 nM
  TGI: > 40900 nM

## O=C1C(Nc2ccc(Cl)cc2)=C(I)C(=O)c2ncccc21
A549 NSCLC
  GI50: 2750 nM
  TGI: 9480 nM
U251 CNS
  GI50: 1480 nM
  TGI: 2800 nM
SK-MEL-28 melanoma
  GI50: 1640 nM
  TGI: 3020 nM
UACC-257 melanoma
  GI50: 1290 nM
  TGI: 2600 nM
MDA-MB-231 breast
  GI50: 1310 nM
  TGI: 2700 nM
SF-539 CNS
  GI50: 1630 nM
  TGI: 3000 nM
HCT-15 colon
  GI50: 373 nM
  TGI: 1820 nM
RXF 393 renal
  GI50: 1690 nM
  TGI: 3120 nM
K-562 leukemia
  GI50: 278 nM
  TGI: 10400 nM
MOLT-4 leukemia
  GI50: 964 nM
  TGI: 9320 nM
HS 578T breast
  GI50: 2130 nM
  TGI: 6440 nM
LOX IMVI melanoma
  GI50: 624 nM
  TGI: 2110 nM
SNB-19 CNS
  GI50: 1610 nM
  TGI: 3230 nM
SF-295 CNS
  GI50: 6790 nM
  TGI: 19600 nM
HCC-2998 colon
  GI50: 1770 nM
  TGI: 3740 nM
M14 melanoma
  GI50: 828 nM
  TGI: 2260 nM
HCT-116 colon
  GI50: 305 nM
  TGI: 1180 nM
CAKI-1 renal
  GI50: 327 nM
  TGI: 1540 nM
SR leukemia
  GI50: 301 nM
  TGI: 2280 nM
SN12C renal
  GI50: 1470 nM
  TGI: 2990 nM
UO-31 renal
  GI50: 473 nM
  TGI: 1740 nM
NCI-H226 lung
  GI50: 1520 nM
  TGI: 3030 nM
TK-10 renal
  GI50: 1590 nM
  TGI: 2940 nM
SK-MEL-2 melanoma
  GI50: 1550 nM
  TGI: 3030 nM
OVCAR-5 ovarian
  GI50: 1580 nM
  TGI: 3000 nM
SK-OV-3 ovarian
  GI50: 4280 nM
  TGI: 18000 nM
HOP-92 NSCLC
  GI50: 1430 nM
  TGI: 2900 nM
A498 renal
  GI50: 2530 nM
  TGI: 13400 nM
MCF7 breast
  GI50: 289 nM
  TGI: 1160 nM
786-0 renal
  GI50: 910 nM
  TGI: 2250 nM
NCI-H23 lung
  GI50: 1250 nM
  TGI: 3170 nM
KM12 colon
  GI50: 1680 nM
  TGI: 11000 nM
OVCAR-4 ovarian
  GI50: 989 nM
  TGI: 2190 nM
SF-268 CNS
  GI50: 1370 nM
  TGI: 3230 nM
PC-3 prostate
  GI50: 1120 nM
  TGI: 2600 nM
RPMI-8226 leukemia
  GI50: 1330 nM
  TGI: 5000 nM
SW-620 colon
  GI50: 378 nM
  TGI: 2000 nM
UACC-62 melanoma
  GI50: 1330 nM
  TGI: 3120 nM
OVCAR-8 ovarian
  GI50: 1510 nM
  TGI: 3120 nM
BT-549 breast
  GI50: 2000 nM
  TGI: 4720 nM
SK-MEL-5 melanoma
  GI50: 1550 nM
  TGI: 2910 nM
SNB-75 CNS
  GI50: 1310 nM
  TGI: 3090 nM
MALME-3M melanoma
  GI50: 875 nM
  TGI: 2140 nM
OVCAR-3 ovarian
  GI50: 247 nM
  TGI: 1030 nM
MDA-MB-435
  GI50: 1430 nM
  TGI: 2900 nM
NCI/ADR-RES ovarian
  GI50: 2010 nM
  TGI: 5370 nM
T-47D breast
  GI50: 1000 nM
  TGI: 3540 nM
HOP-62 NSCLC
  GI50: 1790 nM
  TGI: 4740 nM
IGROV1 ovarian
  GI50: 359 nM
  TGI: 1410 nM
DU-145 prostate
  GI50: 1370 nM
  TGI: 3370 nM
CCRF-CEM leukemia
  GI50: 784 nM
  TGI: 5880 nM
EKVX NSCLC
  GI50: 1710 nM
  TGI: 3320 nM
COLO 205 colon
  GI50: 1320 nM
  TGI: 2790 nM
ACHN renal
  GI50: 376 nM
  TGI: 1320 nM
